Data set [1] concerns the target T1, 5-LO (Homo sapiens, UniProt P09917).
T1 sequence (P09917 1-674): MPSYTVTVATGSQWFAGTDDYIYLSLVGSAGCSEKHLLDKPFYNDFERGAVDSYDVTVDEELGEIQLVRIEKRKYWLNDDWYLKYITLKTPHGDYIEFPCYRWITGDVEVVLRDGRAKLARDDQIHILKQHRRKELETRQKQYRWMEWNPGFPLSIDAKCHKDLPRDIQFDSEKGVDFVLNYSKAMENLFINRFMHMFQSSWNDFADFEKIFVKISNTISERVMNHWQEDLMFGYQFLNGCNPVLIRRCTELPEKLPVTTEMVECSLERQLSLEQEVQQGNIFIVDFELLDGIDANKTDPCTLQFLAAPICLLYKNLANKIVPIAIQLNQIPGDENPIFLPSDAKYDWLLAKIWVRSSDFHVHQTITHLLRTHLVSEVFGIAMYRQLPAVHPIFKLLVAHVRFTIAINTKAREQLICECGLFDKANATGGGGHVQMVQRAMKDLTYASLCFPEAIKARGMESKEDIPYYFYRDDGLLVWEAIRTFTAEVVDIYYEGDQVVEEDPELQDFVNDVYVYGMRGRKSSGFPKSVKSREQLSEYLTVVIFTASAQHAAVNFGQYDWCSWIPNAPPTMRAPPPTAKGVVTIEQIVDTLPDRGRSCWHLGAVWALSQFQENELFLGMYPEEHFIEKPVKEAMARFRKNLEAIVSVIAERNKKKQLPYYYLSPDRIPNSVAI
More on the design: 5-LO is highly expressed in PMNL; endogenous in cells; host or cells: human PMNL from peripheral blood of healthy volunteers. As to conditions: read-out: IC50, inhibition of LTs biosynthesis in human PMNL; cited from earlier work.

Data set [2] concerns the target T1, 5-LO. Kind of data set: 5-LO products biosynthesis assay in human PMNL cells. More on the design: 5-LO is highly expressed in PMNL; endogenous in cells; host or cells: human PMNL from peripheral blood of healthy volunteers. The settings on record: compounds at 1 µM; result in words, compared with zileuton (1), SAPE (2) or controls; thapsigargin stimulation. The format is cell-based. From the text: To further probe the inhibitory activity of compounds that approached the inhibitory activity of zileuton (1) and SAPE (2), compounds were selected for further screening in PMNL (Figure 6). 5-LO is highly expressed in PMNL and these cells are important physiological producers of LTB4 [17]. […] The presence of the hydroxyl group in position 4 and the methoxy groups in positions 3 and 5 seems to be an ideal combination for inhibition of 5-LO (Figure 6). These structural changes may influence the availability, cell permeation, or even the stability of inhibitors in PMNL versus HEK293 cells. […] Human PMNL were prepared from peripheral blood of healthy consenting volunteers as described. Human PMNL are an important source of 5-LO metabolites and are relevant primary inflammatory cells for the evaluation of the best compounds identified during the screening process. PMNL were suspended in HBSS containing 1.6 mM CaCl2 (10^7 cells/mL) and pre-incubated with compounds dissolved in DMSO for 5 min at 37 °C in the presence of 0.4 U/mL of adenosine deaminase (Sigma-Aldrich, Oakville, On, Canada). Cells were then stimulated for 15 min at 37 °C with 1 μM thapsigargin (Sigma-Aldrich). Reactions were stopped by the addition of 0.5 mL of cold MeOH:CH3CN (1:1) and 50 ng of PGB2 as internal standard and samples were stored at -20 °C until processing for RP-HPLC analysis as indicated above.

Data set [3] has as its target T1, 5-LO. Kind of data set: 5-LO product biosynthesis assay in stimulated HEK293 cells co-transfected with 5-LO and FLAP. More on the design: expressed in transfected cells; host or cells: HEK293 cells, stably co-transfected (pcDNA3.1 5-LO, pBUDCE4.1 FLAP). Format: cell-based. The settings on record: compounds at 1 µM; result in words, compared with zileuton (1) and SAPE (2) at 1 µM; A23187 + arachidonic acid stimulation. Here is the method: All compounds, including known inhibitors zileuton (1) and SAPE (2), were assayed at 1 µM (Figure 1) for inhibition of LTs biosynthesis in stimulated HEK293 cells. These cells are stably transfected with human 5-LO and serves as a highly reproducible model of 5-LO product biosynthesis in which compounds can be preliminarily screened for anti-LTs activity before moving on to more complex systems. […] Esterification of benzo[b]thiophene-2-carboxylic acid to obtain benzyl to phenbutyl analogs (4–7) had no effect on the inhibitory activity of 5-LO. […] Even the addition of a hydroxyl (8) or methoxy (9) at para-position of the phenethyl group has no effect on the activity.
HEK293 cells were stably co-transfected with a pcDNA3.1 vector expressing 5-LO and a pBUDCE4.1 vector expressing 5-LO activating protein (FLAP) as previously reported. This represents a controlled model for the evaluation of 5-LO inhibition in a cellular system. For cell stimulation of 5-LO products, transfected HEK293 cells were collected following trypsinization, washed and the cell pellet was resuspended in Hank’s balanced salt solution (HBSS) (Lonza, Walkerville, MD) containing 1.6 mM CaCl2 at a concentration of 5 × 10^5 cells/mL. Cells were pre-incubated with each compound dissolved in DMSO at the indicated concentration for 5 min at 37 °C. Cells were then stimulated for 15 min at 37 °C with the addition of 10 µM calcium ionophore A23187 (Sigma-Aldrich, Oakville, ON, Canada) and 10 µM arachidonic acid (Cayman Chemical, Ann Arbor, MI). Stimulation was stopped and processed for RP-HPLC analysis as described previously.

Data set [4] can be described thus: Free radical scavenging activity assay (DPPH). The settings on record: DPPH stable radical, 30 min, absorbance 517 nm; read-out: Free radical scavenging activity IC50 (µM) [SEM]. Here is the method: A mechanism by which 5-LO activity can be inhibited is through reductive inhibition of the ferric non-heme iron of the enzyme. Interactions with stable free radicals provides an evaluation of the reducing ability of the test compounds. Radical scavenging activities of compounds tested in stimulated PMNL were assayed using 2,2-Diphenyl-1-picrylhydrazyl (DPPH) as a stable radical and are expressed as IC50 concentrations in Table 1.
The free radical scavenging activity of test compounds was measured as previously described using 2,2-diphenyl-1-picrylhydrazyl (DPPH) as a stable radical with slight modifications. DPPH (200 µL) in ethanol (250 µM) was mixed with 200 µL of the test compounds (1, 5, 10, 25, 50, 75, and 100 µg/mL). Each mixture was then shaken vigorously and held in the dark for 30 min at room temperature. The absorbance of DPPH at 517 nm was then measured. The radical scavenging activity was expressed in terms of % inhibition of DPPH absorbance:% Inhibition = (A control − A test)/A control) × 100 where A control is the absorbance of the control (DPPH solution without test compounds) and A test is the absorbance of the test sample (DPPH solution plus compounds). Ascorbic acid was used as a positive control. Data were expressed as mean ± SEM of three independent experiments, each performed in triplicate. IC50 values were calculated from a sigmoidal concentration-response curve-fitting model with a variable slope on GraphPad Prism software.
(In general: The DPPH test is a chemical assay of radical scavenging.)

In general, IC50 refers to the concentration at which inhibition is half-maximal. For the compound `O=C(/C=C/c1ccc(O)c(O)c1)OCCc1ccccc1` [CAPE, caffeic acid phenethyl ester], the concentration for half-maximal inhibition (IC50) on 5-LO [1] was 0.52 µM.
Usually melting point stands for the temperature, or range, at which the solid turns liquid. `O=C(/C=C/c1ccccc1O)c1cc2ccccc2s1` [Compound 14, (E)-1-(1-Benzothiophen-2-yl)-3-(o-hydroxyphenyl)-2-propen-1-one] came in with a melting point of 178 to 180 °C. For the same compound, the “Inhibition of the biosynthesis of 5-LO products in human PMNL cells” value at 5-LO [2] is “neither compound showed significant inhibition compared to controls”. For the same compound, the “Inhibition of the biosynthesis of 5-LO products in stimulated HEK293 cells” value at 5-LO [3] was “non-significantly different than Zileuton (1)”. In data set [4], the IC50 turned out to be 31.8 µM.

The record behind these values is paper PMC7587396, “New Zileuton-Hydroxycinnamic Acid Hybrids: Synthesis and Structure-Activity Relationship towards 5-Lipoxygenase Inhibition” (Molecules, 2020).
